Measurements from patent US12480950B2, “AKT-specific capture agents, compositions, and methods of using and making” (California Institute of Technology, priority 2011, dated 2025).
Square brackets hold non-standard residues; d marks the D form. Ends that are not written are not given here. Pra = C#CC[C@H](N)C(=O)O; Az8 = not defined here

Assays:
[1] = biological target: T1, E17K mutant Akt1 PH Domain (Homo sapiens, UniProt P31749, E17K); test: Streptavidin-agarose pulldown assay; type: binding; conditions: Western blot, relative protein band sizes
T1 construct: The first 124 N-terminal amino acids from full length Akt1 were used as the PH Domain DNA; thrombin cleavage site (C); 6-His (C); made in house; host or cells: E. coli
Experimental: (§1) These resins were then incubated with either (a) WT or (b) E17K Mutant PHD to measure the amount of pulldown for each potential anchor ligand. Peptide eefef is SEQ ID NO:5. Peptide yleaf is SEQ ID NO:16.
(§2) Pulldown assays were done on Streptavidin Agarose resin from Novachem. The resin was incubated with N-terminally biotinylated anchor peptide candidates identified via the ClusterLigand sequence analysis. The anchor candidate coated beads were then incubated with both wildtype and mutant protein to compare the selectivity of the ligands, as well as the binding ability.
(§3) Assays were done with 50 uL of Streptavidin-Agarose slurry (25 uL resin) in Spin-X tubes. Resin was aliquotted into 14 tubes—six ligands plus a blank tested against two different proteins, then washed three times with 1×TBS with 0.25% IPEGAL detergent added. Each set of tubes was incubated with 170 nmol of the appropriate biotinylated ligand in 200 uL 1×HEPES (10 mM HEPES, 150 mM NaCl, 0.25% IPEGAL, 5 mM EDTA) or plain buffer for the blank. Ligand binding was done for one hour at room temperature, then resin was washed three times with 1×HEPES. Resin was blocked with 1×HEPES with 5% BSA for two hours. The anchor-coated resin was then incubated with either wildtype or mutant expressed PH domain protein overnight (˜16 hours) in cold room (4° C.). Protein was spun out of tubes, and the resin was washed three times with high salt TBS, then incubated for five minutes in the high salt buffer. The resin was then washed three times with the 1×TBS buffer, and spun out to dry completely. 50 uL of denaturing SDS gel loading buffer with 10% B-mercaptoethanol was added to the samples and they were incubated at 95° C. for ten minutes to denature. The gel loading buffer was spun out of the Spin-X tubes and the samples were run on an Any KD BioRad Premade Gel under denaturing conditions. Gel was transferred to nitrocellulose membrane and western blotted. Proteins were detected using rabbit polyclonal anti-Akt1 antibody (ab64148, Abcam) and an anti-rabbit HRP conjugated secondary anti-body then developed with West Pico Chemilluminescent substrate (Pierce).

wildtype Akt1 PH Domain = biological target: T2, wildtype Akt1 PH Domain (Homo sapiens, UniProt P31749); test: Streptavidin-agarose pulldown assay; type: binding; conditions: Western blot, relative protein band sizes
T2 construct: The first 124 N-terminal amino acids from full length Akt1 were used as the PH Domain DNA; thrombin cleavage site (C); 6-His (C); made in house; host or cells: E. coli
Experimental: as §1, §2, §3

Akt1 = test: Specificity ELISA, immobilized ligand probed with His-tagged kinases; set-up: species or system H. sapiens; conditions: A450 normalized to Akt1-S473E binding; kinase panel
Experimental: (§4) Biotinylated ligand was immobilized on Streptavidin plates and probed with 25 nM His-tagged kinase followed by anti-Histag antibody-HRP conjugate. Values represent the mean A450 obtained from three experiments after normalization to Akt1-S473E binding. The error bars show the standard error.
(§5) The specificity of the anchor ligand, biligand, and triligand developed in Example 1 was analyzed using a battery of protein kinases. […] Akt1-S473E was expressed and purified as described above.
(§6) The relative affinity of each kinase was determined by probing with an anti-His6 antibody and normalizing the response to Akt1-S473E. All proteins were diluted in Akt blocking buffer to a final concentration of 24 nM prior to use. Ligands were diluted in Akt blocking buffer to a final concentration of 2.5 μM prior to use. 100 μL of each ligand (250 pmol) was added to each well of a HBC streptavidin-coated 96-well plate. The ligands were bound at 4° C. for 1 hour followed by addition of D-biotin to a final concentration of 500 μM. After 10 minutes at 4° C., the wells were washed three times with Akt blocking buffer and blocked overnight in 5% non-fat milk.
(§7) The wells were washed three times in Akt blocking buffer and 50 μL of active protein was applied to each well. After binding for 120 minutes at 4° C., the wells were washed three times in Akt blocking buffer to remove unbound protein. 50 μL of horseradish peroxidase-conjugated Anti-His6 antibody was added at a dilution of 1:100 (His Probe (H-3) HRP conjugate, Santa Cruz Biotechnology). The antibody-HRP conjugate was incubated for 60 minutes and the wells were washed 3 times in TBST and once in TBS. 50 μL of peroxidase substrate (KPL) was added and the resulting color change was quenched with 50 μL 1 M H2SO4. The A450 measured on a 96-well plate reader. […] The mean value for the triplicates was calculated and plotted and the error bars were generated from the standard error of the mean (GraphPad Prism).

GSK3β = biological target: T3, GSK3β (Homo sapiens, UniProt P49841); test: as above; conditions: A450 normalized to Akt1-S473E binding
T3 construct: a set of His-tagged active protein kinase domains from the AGC family; purchased Invitrogen
Experimental: as §4, §5, §6, §7

Akt = test: Immunoprecipitation of Akt from OVCAR3 cell lysates with immobilized ligands; type: binding; conditions: EGF and insulin induced or control, Western blot with pan-Akt antibody
Experimental: A representative 12% gel stained with Coomassie and imaged. Lane 1: Lysate, Lane 2: Anchor resin, Lane 3: Biligand resin, Lane 4: Triligand resin, Lane 5: 5G3 mAb resin.
After 18 hours at 4° C., resins were washed exhaustively, eluted with SDS-PAGE sample buffer, and analyzed by Western blotting. 1. Blank resin, 2. Anchor, 3. Biligand, 4. Triligand, 5. [5G3] mAb, L. lysate.
For the IP experiments, the anchor, biligand, and triligands were immobilized on streptavidin-agarose, and each resin was panned with OVCAR3 cell lysates obtained from untreated cells or cells stimulated with a combination of epidermal growth factor (EGF) and insulin.
OVCAR3 cells were grown in RPMI-1640 media containing 10% fetal bovine serum, penicillin, and streptomycin. Passage 4 cells were grown to ˜60% confluence and treated with insulin and EGF at final concentration of 10 μg/mL and 20 ng/mL respectively (induced) or mock treated (control). Cells were grown for an additional 24 hours and then lysed with lysis buffer (10 mM Tris-Cl (pH=7.5), 100 mM NaCl, 1% (v/v) Triton X-100, 0.1% SDS (w/v), 0.5% deoxycholate, 1 mM DTT, 1 mM EDTA, 1× PhosStop phosphatase inhibitors (Roche), 1× Complete protease inhibitors (Roche). Cell lysate protein concentrations were determined by Bradford assays. […]

Akt1-S473E-T308P [2] = test: [γ-32P]-ATP kinase activity assay, inhibition of Akt1-S473E-T308P; type: biochemical, H. sapiens; conditions: 120 μM compound, 30 minutes at room temperature, in the absence and presence of the conjugated small molecule inhibitor
Experimental: Peptide is SEQ ID NO:22. Kinase reactions were carried out with 120 μM of each compound for 30 minutes at room temperature. The amount of phosphorylated substrate was quantitated by liquid scintillation counting and the % Akt1-S473E-T308P activity determined based on the amount of product formed in the control kinase reaction. The values shown are the mean value of three experiments and the error bars are the standard deviation.
The activity of Akt-S473E-T308P was characterized by a [γ-^32P]-ATP kinase activity assay measuring the incorporation of ^32P into biotinylated crosstide peptide (Anaspec). Briefly, reactions containing 80 ng of Akt-S473E-T308P, 50 μM Bio-crosstide, and varying concentrations of ATP/[γ-^32P]-ATP (specific activity=1.5 mCi/mL).
(§8) Candidate sequences were scaled up and tested for their ability to inhibit Akt1-S473E-T308P activity. […] This peptide was re-synthesized as a C-terminal biotinylated peptide and used as the anchor in the biligand screen.

Akt1-S473E-T308P [3] = test: Phosphorylation of biotinylated anchor peptide in standard kinase reaction; type: biochemical, H. sapiens; conditions: 30 min at room temperature, liquid scintillation counting
Experimental: Biotinylated peptides were incubated in a standard kinase reaction mixture for 30 min. at room temperature. A portion of the reaction was spotted onto a SAM2 Biotin Capture Membrane (Promega), washed, and analyzed by liquid scintillation counting. The total counts per minute (cpm) are shown for the anchor peptide (VFYRL-Bio(1) (SEQ ID NO:22) and VFYRL-Bio(2) (SEQ ID NO:22)) as well as the standard substrate peptide (Bio-Crosstide). The number in parentheses identifies the diastereomer based on retention time in RP-HPLC.
as §8

Akt-S473E = test: ELISA with immobilized Akt-S473E, relative affinity of biotinylated ligands; type: binding, H. sapiens; conditions: read-out: binding affinity for Akt
Akt-S473E, sequence (P31749 144-449 limits assumed, stated change not applied): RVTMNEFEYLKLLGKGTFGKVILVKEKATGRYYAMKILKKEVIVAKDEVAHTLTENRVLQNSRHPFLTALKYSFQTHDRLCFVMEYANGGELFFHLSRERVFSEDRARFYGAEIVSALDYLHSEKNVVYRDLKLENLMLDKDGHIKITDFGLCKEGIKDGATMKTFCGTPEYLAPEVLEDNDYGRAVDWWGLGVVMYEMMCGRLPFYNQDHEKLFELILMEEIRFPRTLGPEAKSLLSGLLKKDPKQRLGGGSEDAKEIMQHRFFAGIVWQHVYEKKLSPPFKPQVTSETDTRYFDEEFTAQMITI
Experimental: Akt-S473E was immobilized on Ni-NTA plates and incubated with varying concentrations of biotinylated peptide. All values were normalized to the binding observed at saturation.
The affinity of the anchor ligand, biligand, and triligand developed in Example 1 was determined by ELISA with immobilized Akt-S473E.
3 μg of Akt-S473E was added to each well in a HisSorb Ni-NTA plate (Qiagen) in 50 μL of ELISA blocking buffer (25 mM Tris-Cl (pH=7.5), 150 mM NaCl, 10 mM MgCl2, 0.1% (v/v) Tween-20, and 4 mg/mL BSA). 50 μL of imidazole blocking buffer (25 mM Tris-Cl (pH=7.5), 150 mM NaCl, 10 mM MgCl2, 0.1% (v/v) Tween-20, 100 mM imidazole, and 4 mg/mL BSA) was added to the control wells. After 18 hours at 4° C., the wells were washed with ELISA blocking buffer and 50 μL of each ligand dilution was added in ELISA blocking buffer. The ligands were bound at 4° C. for 120 minutes followed by three washed in ELISA blocking buffer. 50 μL of horseradish peroxidase-conjugated streptavidin (SA-HRP, Thermo) was added (1:5000 dilution in ELISA blocking buffer) and incubated for 70 minutes at 4° C. […] 50 μL of peroxidase substrate (KPL) was added to generate the final signal which was quenched in 1 M H2SO4 and quantitated on a 96-well plate reader at X=450 nm. The Net A450 was calculated by subtracting the A450 of each blank well (No Akt-S473E) from the experimental well. […]

Akt1, sequence (P31749 150-408 limits assumed): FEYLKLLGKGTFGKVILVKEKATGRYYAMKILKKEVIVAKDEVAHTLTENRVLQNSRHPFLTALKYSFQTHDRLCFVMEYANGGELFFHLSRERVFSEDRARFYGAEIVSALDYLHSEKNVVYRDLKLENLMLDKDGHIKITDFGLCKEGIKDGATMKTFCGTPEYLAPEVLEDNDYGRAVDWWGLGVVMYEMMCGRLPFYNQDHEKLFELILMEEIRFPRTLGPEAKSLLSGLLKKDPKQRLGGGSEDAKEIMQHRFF
Akt1-S473E-T308P, sequence (P31749 150-449 limits assumed, stated change not applied): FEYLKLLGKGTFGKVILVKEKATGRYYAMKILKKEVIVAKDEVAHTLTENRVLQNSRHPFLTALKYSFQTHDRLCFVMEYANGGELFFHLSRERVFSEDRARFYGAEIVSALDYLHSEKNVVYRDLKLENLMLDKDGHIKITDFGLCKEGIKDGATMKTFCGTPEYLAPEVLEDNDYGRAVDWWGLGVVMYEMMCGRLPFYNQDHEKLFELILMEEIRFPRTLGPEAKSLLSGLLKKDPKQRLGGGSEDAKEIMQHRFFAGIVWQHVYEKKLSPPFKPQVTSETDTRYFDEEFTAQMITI
T2 sequence (P31749 1-124): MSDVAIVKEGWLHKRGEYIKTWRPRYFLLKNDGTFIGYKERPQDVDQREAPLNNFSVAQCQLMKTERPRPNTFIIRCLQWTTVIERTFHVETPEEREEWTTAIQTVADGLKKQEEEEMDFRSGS
T1 sequence (P31749 1-124 E17K): as the sequence (P31749 1-124) above, with E17K counted along it
T3 sequence (P49841 56-340 limits assumed, species assumed): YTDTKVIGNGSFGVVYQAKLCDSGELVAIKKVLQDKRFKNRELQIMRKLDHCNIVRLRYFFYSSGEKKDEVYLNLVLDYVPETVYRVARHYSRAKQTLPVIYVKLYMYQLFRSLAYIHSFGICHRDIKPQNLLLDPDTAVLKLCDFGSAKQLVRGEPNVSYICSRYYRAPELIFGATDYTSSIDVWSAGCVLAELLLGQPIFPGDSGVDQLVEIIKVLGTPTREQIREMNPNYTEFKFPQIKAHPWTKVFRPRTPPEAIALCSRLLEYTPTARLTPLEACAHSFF

| binding to GSK3β (GSK3β) | inhibition of Akt1 (Akt1-S473E-T308P [2]) [%] | phosphorylation by Akt in vitro (Akt1-S473E-T308P [3]) | Kd (Akt-S473E) [µM] | Substance | pulldown of E17K mutant PH Domain [1] | pulldown of wildtype PH Domain (wildtype Akt1 PH Domain) | specificity / selectivity for Akt1 (Akt1) | immunoprecipitation of Akt (Akt) |
| --- | --- | --- | --- | --- | --- | --- | --- | --- |
|  |  |  |  | eefef ([dE][dE][dF][dE][dF]; not fully specified (N-terminus); printed as eefef; also: biotinylated, position not confirmed) | the least pulldown for the mutant protein | the only pulldown of the wildtype protein |  |  |
|  |  |  |  | yleaf ([dY][dL][dE][dA][dF]; not fully specified (N-terminus); printed as yleaf; also: biotinylated, position not confirmed) | the greatest binding to the mutant | the least binding to the wildtype |  |  |
| significant cross-reactivity |  |  |  | biligand: anchor ligand Az8-VFYRLGY linked by 1,4-triazole to secondary ligand Pra-FWFLRG-CONH2; biotinylated for assays (peptide 2 [Pra]FWFLRG-NH2; not fully specified (N-terminus, C-terminus, bridges); reading uncertain; also: biotinylated for assays, triazole at chain B 1 to a chain's N-terminus) |  |  | reduced selectivity | increased affinity |
| only modest binding | ~95 | not phosphorylated | > 25 | Az8-VFYRLGY-CONH2 [anchor ligand] |  |  | very specific for the Akt1 protein |  |
